Assays:
Format in all cases: in vitro ADME
CYP2C9 = target: T1, CYP2C9 (Homo sapiens, UniProt P11712); assay: CYP2C9 inhibition (tolbutamide 4-hydroxylase) in human liver microsomes, substrate cocktail LC-MS/MS; conditions: IC50 P450 isoform 2C9, pooled HLMs 0.25 mg/mL, tolbutamide 100 μM
T1 construct: the incubation mixtures containing pooled HLMs (0.25 mg/mL, H2630, Xenotech); tissue Xenotech H2630; host or cells: pooled human liver microsomes
Protocol: (§1) The inhibitory effects of two selaginellins on the metabolism of ten P450 probe substrates were evaluated using previously reported method with minor modification. Phenacetin O-deethylase, coumarin 7-hydroxylase, bupropion 4-hydroxylase, amodiaquine N-deethylase, tolbutamide 4-hydroxylase, omeprazole 5-hydroxylase, dextromethorphan O-demethylase, chlorzoxazone 6-hydroxylase and midazolam 1′-hydroxylase activities were determined as probe activities for CYP1A2, CYP2A6, CYP2B6, CYP2C8, CYP2C9, CYP2C19, CYP2D6, CYP2E1 and […], respectively, using substrate cocktail incubation and tandem mass spectrometry (Table 2). Selaginellins were dissolved in methanol. The final concentrations of organic solvent (methanol) for the cocktail incubation conditions in all experiments were 1.0% (v/v). In brief, the incubation mixtures containing pooled HLMs (0.25 mg/mL, H2630, Xenotech), P450 probe substrate cocktail, and inhibitor (0, 0.5, 2, 5, 20 and 50 μM) were preincubated at 37 °C for 5 min. […] After mixing and centrifugation, aliquots were analyzed by liquid chromatography-tandem mass spectrometry (LC-MS/MS) as previous described. The CYP2J2 inhibitory effects of two selaginellins were also evaluated in pooled HLMs using previously reported method. […]

CYP2E1 = target: T2, CYP2E1 (Homo sapiens, UniProt P05181); assay: CYP2E1 inhibition (chlorzoxazone 6-hydroxylase) in human liver microsomes, substrate cocktail LC-MS/MS
T2 construct: the incubation mixtures containing pooled HLMs (0.25 mg/mL, H2630, Xenotech); tissue Xenotech H2630; host or cells: pooled human liver microsomes
T2 sequence (P05181 whole entry): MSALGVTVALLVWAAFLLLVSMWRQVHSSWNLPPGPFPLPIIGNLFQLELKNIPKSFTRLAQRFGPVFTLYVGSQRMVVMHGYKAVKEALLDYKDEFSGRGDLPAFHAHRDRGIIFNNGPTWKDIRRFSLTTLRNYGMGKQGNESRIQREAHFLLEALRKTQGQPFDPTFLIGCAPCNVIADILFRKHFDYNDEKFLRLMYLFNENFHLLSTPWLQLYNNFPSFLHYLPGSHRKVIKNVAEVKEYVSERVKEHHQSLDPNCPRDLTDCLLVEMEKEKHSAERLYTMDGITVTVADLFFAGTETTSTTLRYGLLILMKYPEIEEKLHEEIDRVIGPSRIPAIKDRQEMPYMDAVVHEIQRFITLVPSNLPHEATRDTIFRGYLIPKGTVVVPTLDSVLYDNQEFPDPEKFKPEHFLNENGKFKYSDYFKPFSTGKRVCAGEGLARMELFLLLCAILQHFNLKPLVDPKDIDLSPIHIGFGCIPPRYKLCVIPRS
Protocol: as §1

UGT2B7 = target: T3, UGT2B7 (Homo sapiens, UniProt P16662); assay: UGT2B7 inhibition (naloxone glucuronidation) in human liver microsomes, cocktail LC-MS/MS
T3 construct: from tissue; host or cells: human liver microsomes
T3 sequence (P16662 24-529): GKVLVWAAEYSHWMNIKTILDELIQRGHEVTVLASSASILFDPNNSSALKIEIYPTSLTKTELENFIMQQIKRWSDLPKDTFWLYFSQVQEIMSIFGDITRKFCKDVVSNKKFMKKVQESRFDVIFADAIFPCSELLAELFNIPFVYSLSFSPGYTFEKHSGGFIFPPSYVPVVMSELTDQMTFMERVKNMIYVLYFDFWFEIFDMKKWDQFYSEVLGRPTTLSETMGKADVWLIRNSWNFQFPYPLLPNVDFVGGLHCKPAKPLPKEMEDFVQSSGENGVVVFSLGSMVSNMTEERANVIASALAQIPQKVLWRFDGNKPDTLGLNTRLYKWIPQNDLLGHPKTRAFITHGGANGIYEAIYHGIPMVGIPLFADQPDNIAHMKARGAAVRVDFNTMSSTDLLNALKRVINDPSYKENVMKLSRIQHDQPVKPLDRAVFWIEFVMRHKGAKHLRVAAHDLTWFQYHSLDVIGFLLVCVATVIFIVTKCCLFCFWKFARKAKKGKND
Protocol: (§2) The inhibitory effects of two selaginellins on the metabolism of six UGT probe substrates were evaluated using previously reported method with minor modification. In brief, HLMs (0.25 mg/mL) were activated by incubation in the presence of alamethicin (25 μg/mL) for 15 min on ice. After the addition of UGT isoform-selective substrates and selaginellins (0, 0.5, 2, 5, 20 and 50 μM) the final concentrations of organic solvent (methanol) for the cocktail incubation conditions were 1.0% (v/v). The incubation reaction mixtures were pre-incubated for 5 min. The reaction was initiated by the addition of 5 mM UDPGA and further incubated for 60 min. All reactions were terminated by adding ice-cold acetonitrile containing estrone glucuronide (IS). After mixing and centrifugation, aliquots were injected into a LC-MS/MS as described previously (Table 2). All microsomal incubations were performed in triplicate.
(§3) The IC50 values (concentration of the inhibitor causing 50% inhibition of the original enzyme activity) were calculated using WinNonlin software (Pharsight, Mountain View, CA, USA): percentage of control activity = 100 × [1 − (I/(I + IC50))], where I is the inhibitor concentration, and IC50 is the inflection point on the curve.

UGT1A1 = target: T4, UGT1A1 (Homo sapiens, UniProt P22309); assay: UGT1A1 inhibition (SN-38 glucuronidation) in human liver microsomes, cocktail LC-MS/MS; conditions: IC50 UGT isoform 1A1, HLMs 0.25 mg/mL with alamethicin, SN-38 0.5 μM
T4 construct: from tissue; host or cells: human liver microsomes
T4 sequence (P22309 26-533): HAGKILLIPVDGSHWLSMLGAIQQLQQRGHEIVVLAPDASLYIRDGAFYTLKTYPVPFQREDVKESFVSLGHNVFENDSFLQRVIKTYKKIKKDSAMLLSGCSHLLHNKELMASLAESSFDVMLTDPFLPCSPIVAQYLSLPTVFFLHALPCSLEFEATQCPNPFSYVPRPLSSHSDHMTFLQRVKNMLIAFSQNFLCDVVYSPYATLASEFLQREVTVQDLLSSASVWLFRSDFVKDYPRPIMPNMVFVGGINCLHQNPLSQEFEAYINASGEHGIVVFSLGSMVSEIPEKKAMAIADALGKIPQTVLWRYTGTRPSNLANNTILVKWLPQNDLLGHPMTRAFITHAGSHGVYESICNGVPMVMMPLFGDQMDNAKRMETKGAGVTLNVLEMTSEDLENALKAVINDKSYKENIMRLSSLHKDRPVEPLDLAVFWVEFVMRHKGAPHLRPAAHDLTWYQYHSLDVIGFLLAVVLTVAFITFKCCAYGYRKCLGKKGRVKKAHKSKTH
Protocol: as §2, §3

T1 sequence (P11712 whole entry, canonical isoform): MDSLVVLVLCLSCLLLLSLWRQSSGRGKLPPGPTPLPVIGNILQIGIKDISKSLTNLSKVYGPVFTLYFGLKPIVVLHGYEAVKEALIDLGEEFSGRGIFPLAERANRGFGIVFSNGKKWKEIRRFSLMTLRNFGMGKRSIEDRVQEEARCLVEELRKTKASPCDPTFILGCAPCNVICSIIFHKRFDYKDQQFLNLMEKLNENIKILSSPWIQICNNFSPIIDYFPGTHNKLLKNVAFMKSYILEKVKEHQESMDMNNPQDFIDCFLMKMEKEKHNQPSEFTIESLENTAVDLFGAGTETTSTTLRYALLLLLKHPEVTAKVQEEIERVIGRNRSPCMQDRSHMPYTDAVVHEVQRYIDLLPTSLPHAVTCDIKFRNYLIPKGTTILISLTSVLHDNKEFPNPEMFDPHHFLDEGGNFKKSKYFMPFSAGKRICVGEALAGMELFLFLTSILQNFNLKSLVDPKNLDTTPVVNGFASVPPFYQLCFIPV

SMILES	IC50 (CYP2C9)	IC50 (CYP2E1)	IC50 (UGT2B7)	IC50 (UGT1A1)
COc1ccc(C(=C2C=CC(=O)C=C2)c2c(-c3ccc(O)cc3)ccc(CO)c2C#Cc2ccc(O)cc2)cc1 [Selaginellin M]	3.9 µM	> 50 µM	10.4 µM	1.3 µM
O=C1C=CC(=C(c2ccc(O)cc2)c2c(-c3ccc(O)cc3)ccc(CO)c2C#Cc2ccc(O)cc2)C=C1 [Selaginellin]	1.2 µM	38.5 µM	15.6 µM	1 µM
